Source: PubChem BioAssay AID1963875 (Molecular Pharmacology Branch, DTP, NCI, 2024)

Tested on: KRAS-mutant PDC complex spheroid viability
Test: Anticancer human tumor 186277-243-T-J2-PDC patient-derived colon adenocarcinoma cell line growth inhibition [KRAS2]
Conditions: for IC50: curve of first compound; for viability, T/C: stronger effect = lower value
Summary of the method: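 Combination screen of spheroid viability in tumor-cell co-cultures with endothelial (HUVEC) and mesenchymal stem cell stroma. Each agent was tested in half-log dilutions, topping at clinical Cmax or at 10 microM without a known Cmax.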

[1] = second compound 0.1 µM, first compound 0.0316 µM
[2] = second compound 0.1 µM, first compound 0.1 µM
[3] = second compound 0.1 µM, first compound 0.316 µM
[4] = second compound 0.1 µM, first compound 1 µM
[5] = second compound 0.1 µM, first compound 3.16 µM
[6] = second compound 0.1 µM, first compound 10 µM
[7] = second compound 0.316 µM, first compound 0.0316 µM
[8] = second compound 0.316 µM, first compound 0.1 µM
[9] = second compound 0.316 µM, first compound 0.316 µM
[10] = second compound 0.316 µM, first compound 1 µM
[11] = second compound 0.316 µM, first compound 3.16 µM
[12] = second compound 0.316 µM, first compound 10 µM
[13] = second compound 1 µM, first compound 0.0316 µM
[14] = second compound 1 µM, first compound 0.1 µM
[15] = second compound 1 µM, first compound 0.316 µM
[16] = second compound 1 µM, first compound 1 µM
[17] = second compound 1 µM, first compound 3.16 µM
[18] = second compound 1 µM, first compound 10 µM
[19] = second compound 3.16 µM, first compound 0.0316 µM
[20] = second compound 3.16 µM, first compound 0.1 µM
[21] = second compound 3.16 µM, first compound 0.316 µM
[22] = second compound 3.16 µM, first compound 1 µM
[23] = second compound 3.16 µM, first compound 3.16 µM
[24] = second compound 3.16 µM, first compound 10 µM
[25] = second compound 10 µM, first compound 0.0316 µM
[26] = second compound 10 µM, first compound 0.1 µM
[27] = second compound 10 µM, first compound 0.316 µM
[28] = second compound 10 µM, first compound 1 µM
[29] = second compound 10 µM, first compound 3.16 µM
[30] = second compound 10 µM, first compound 10 µM
[31] = second compound 0.1 µM, first compound 0.01 µM
[32] = second compound 0.316 µM, first compound 0.01 µM
[33] = second compound 1 µM, first compound 0.01 µM
[34] = second compound 3.16 µM, first compound 0.01 µM
[35] = second compound 10 µM, first compound 0.01 µM
[36] = second compound 0.1 µM, first compound 0.00316 µM
[37] = second compound 0.316 µM, first compound 0.00316 µM
[38] = second compound 1 µM, first compound 0.00316 µM
[39] = second compound 3.16 µM, first compound 0.00316 µM
[40] = second compound 10 µM, first compound 0.00316 µM
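Throughout, for viability, T/C: viability read after seven days of compound exposure; 100% = DMSO vehicle-treated spheroids so lower means less viable.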

Row | SMILES | IC50 (second compound 0.1 µM) [nM] | IC50 (second compound 0.316 µM) [nM] | IC50 (second compound 1 µM) [nM] | IC50 (second compound 3.16 µM) [nM] | IC50 (second compound 10 µM) [nM] | viability, T/C [1] [%] | viability, T/C [2] [%] | viability, T/C [3] [%] | viability, T/C [4] [%] | viability, T/C [7] [%] | viability, T/C [8] [%] | viability, T/C [9] [%] | viability, T/C [10] [%] | viability, T/C [13] [%] | viability, T/C [14] [%] | viability, T/C [15] [%] | viability, T/C [19] [%] | viability, T/C [20] [%] | viability, T/C [25] [%] | viability, T/C [26] [%] | also measured
1 | CC(C)NCC(C(=O)N1CCN(c2ncnc3c2C(C)CC3O)CC1)c1ccc(Cl)cc1 (stereo not given) + COc1cc2nc(C)nc(NC(C)c3cc(N)cc(C(F)(F)F)c3)c2cc1OC1CCOC1 | 414 | 305 | 359 | 571 | 36.4 | 103 | 83.4 | 54.8 | 34.8 | 100 | 85.4 | 47.2 | 21.6 | 98.2 | 87.8 | 50.2 | 107 | 90.4 | 52.4 | 34.7 | viability, T/C [5]: 3.87%; viability, T/C [6]: 7.18%; viability, T/C [11]: 1.85%; viability, T/C [12]: 7.05%; viability, T/C [16]: 24.6%; viability, T/C [17]: 1.87%; viability, T/C [18]: 0.23%; viability, T/C [21]: 96.5%; viability, T/C [22]: 5.81%; viability, T/C [23]: 0.99%; viability, T/C [24]: 8.22%; viability, T/C [27]: 18.7%; viability, T/C [28]: 0.82%; viability, T/C [29]: 0.18%; viability, T/C [30]: 0.39%
2 | CC1COCCN1c1cc(-c2ccnn2C)c2ccnc(-c3ccn[nH]3)c2n1 (stereo not given) + COc1cc2nc(C)nc(NC(C)c3cc(N)cc(C(F)(F)F)c3)c2cc1OC1CCOC1 | < 10 | 21.2 | 19.9 | 19.9 | 18.9 | 4.38 | 3.41 | 2.71 | 2.04 | 24.3 | 3.67 | 2.88 | 2.23 | 17.2 | 4.4 | 3.51 | 16.4 | 3.55 | 7.22 | 3.43 | viability, T/C [31]: 5.03%; viability, T/C [5]: 1.41%; viability, T/C [32]: 98.5%; viability, T/C [11]: 3.71%; viability, T/C [33]: 98.9%; viability, T/C [16]: 3.19%; viability, T/C [17]: 3.55%; viability, T/C [34]: 99.5%; viability, T/C [21]: 2.87%; viability, T/C [22]: 1.93%; viability, T/C [23]: 3.19%; viability, T/C [35]: 103%; viability, T/C [27]: 2.48%; viability, T/C [28]: 2.25%; viability, T/C [29]: 2.72%
3 | CCN1CCN(Cc2ccc(Nc3ncc(F)c(-c4cc(F)c5nc(C)n(C(C)C)c5c4)n3)nc2)CC1 + COc1cc2nc(C)nc(NC(C)c3cc(N)cc(C(F)(F)F)c3)c2cc1OC1CCOC1 | > 1000 | > 1000 | > 1000 | 714 | 64 | 118 | 165 | 173 | 69.4 | 130 | 163 | 146 | 58 | 115 | 157 | 123 | 138 | 157 | 100 | 18.2 | viability, T/C [36]: 97.9%; viability, T/C [31]: 93.2%; viability, T/C [37]: 101%; viability, T/C [32]: 93.6%; viability, T/C [38]: 96%; viability, T/C [33]: 109%; viability, T/C [16]: 50.9%; viability, T/C [39]: 91.9%; viability, T/C [34]: 98.1%; viability, T/C [21]: 108%; viability, T/C [22]: 26.4%; viability, T/C [40]: 103%; viability, T/C [35]: 104%; viability, T/C [27]: 4.89%; viability, T/C [28]: 0.61%
4 | CCNC(=O)CC1N=C(c2ccc(Cl)cc2)c2cc(OC)ccc2-n2c(C)nnc21 (stereo not given) + COc1cc2nc(C)nc(NC(C)c3cc(N)cc(C(F)(F)F)c3)c2cc1OC1CCOC1 | 1910 | 1310 | 1160 | 751 | 229 | 100 | 103 | 139 | 84.7 | 102 | 89.2 | 124 | 57.1 | 93.4 | 108 | 123 | 84.8 | 110 | 90.5 | 90.9 | viability, T/C [5]: 26.7%; viability, T/C [6]: 18.8%; viability, T/C [11]: 28.9%; viability, T/C [12]: 24.5%; viability, T/C [16]: 55%; viability, T/C [17]: 24.3%; viability, T/C [18]: 6.44%; viability, T/C [21]: 107%; viability, T/C [22]: 33.3%; viability, T/C [23]: 13.5%; viability, T/C [24]: 14.2%; viability, T/C [27]: 34.2%; viability, T/C [28]: 2.69%; viability, T/C [29]: 0.68%; viability, T/C [30]: 0.42%
5 | Cn1nccc1Nc1nccc(-c2cc3c(s2)C(C)(C)N(CCN2CCOCC2)C3=O)n1 + COc1cc2nc(C)nc(NC(C)c3cc(N)cc(C(F)(F)F)c3)c2cc1OC1CCOC1 | 266 | 301 | 220 | 193 | 75.7 | 90.7 | 105 | 41.4 | 9.64 | 93.1 | 97.9 | 48 | 9 | 92.2 | 100 | 28.7 | 91.6 | 85.6 | 86.1 | 38.5 | viability, T/C [5]: 5.24%; viability, T/C [6]: 5.34%; viability, T/C [11]: 4.51%; viability, T/C [12]: 4.67%; viability, T/C [16]: 6.92%; viability, T/C [17]: 3.64%; viability, T/C [18]: 4.79%; viability, T/C [21]: 23.2%; viability, T/C [22]: 7.66%; viability, T/C [23]: 4.43%; viability, T/C [24]: 4.37%; viability, T/C [27]: 4.06%; viability, T/C [28]: 1.74%; viability, T/C [29]: 0.34%; viability, T/C [30]: 0.22%
6 | Cn1ncnc1[C@H]1c2n[nH]c(=O)c3cc(F)cc(c23)N[C@@H]1c1ccc(F)cc1 + COc1cc2nc(C)nc(NC(C)c3cc(N)cc(C(F)(F)F)c3)c2cc1OC1CCOC1 | > 100 | > 100 | > 100 | > 100 | 9.92 | 103 | 79.1 | – | – | 90.5 | 74.5 | – | – | 83.4 | 64.5 | – | 74.7 | 63.9 | 42.2 | 25 | viability, T/C (second compound 0.1 µM, first compound 0.000316 µM): 98.7%; viability, T/C (second compound 0.1 µM, first compound 0.001 µM): 107%; viability, T/C [36]: 106%; viability, T/C [31]: 109%; viability, T/C (second compound 0.316 µM, first compound 0.000316 µM): 108%; viability, T/C (second compound 0.316 µM, first compound 0.001 µM): 120%; viability, T/C [37]: 105%; viability, T/C [32]: 89.4%; viability, T/C (second compound 1 µM, first compound 0.000316 µM): 109%; viability, T/C (second compound 1 µM, first compound 0.001 µM): 112%; viability, T/C [38]: 104%; viability, T/C [33]: 99.2%; viability, T/C (second compound 3.16 µM, first compound 0.000316 µM): 81.8%; viability, T/C (second compound 3.16 µM, first compound 0.001 µM): 116%; viability, T/C [39]: 108%; viability, T/C [34]: 86.3%; viability, T/C (second compound 10 µM, first compound 0.000316 µM): 79.2%; viability, T/C (second compound 10 µM, first compound 0.001 µM): 68.5%; viability, T/C [40]: 63.6%; viability, T/C [35]: 45.5%
